# Reference: US20240025893A1, “PYRIMIDINE-AND NITROGEN-CONTAINING BICYCLIC COMPOUND” (Asahi Kasei Pharma Corporation, priority 2020, published 2024)
# Tests used:
# [1] = system: LPS-stimulated TNFα production in THP-1 cells; test: LPS-stimulated TNFα production inhibition test using human acute monocytic leukemia cell strain THP-1; format: cell-based; details: Homo sapiens, THP-1, 4 h, LPS 2.5 ng/mL, average values
# Outline: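 Readout was HTRF-measured TNFα in supernatants, calibrated against a standard curve, after LPS challenge (2.5 ng/mL final, 4 h) of THP-1 cells pretreated 1 h at 37 °C with compound. Unstimulated wells defined 100% suppression and vehicle wells 0%. IC50 was fitted with a 4-parameter logistic model.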
# [2] = target: human IRAK-4 (Homo sapiens (Human), UniProt Q9NWZ3); test: Measurement of human IRAK-4 inhibitory activity (TR-FRET, peptide substrate phosphorylation, 10 μM ATP); format: biochemical; details: 1 nM IRAK-4, 10 μM ATP, 23° C., 30 minutes; average values
# human IRAK-4, sequence (Q9NWZ3 whole entry): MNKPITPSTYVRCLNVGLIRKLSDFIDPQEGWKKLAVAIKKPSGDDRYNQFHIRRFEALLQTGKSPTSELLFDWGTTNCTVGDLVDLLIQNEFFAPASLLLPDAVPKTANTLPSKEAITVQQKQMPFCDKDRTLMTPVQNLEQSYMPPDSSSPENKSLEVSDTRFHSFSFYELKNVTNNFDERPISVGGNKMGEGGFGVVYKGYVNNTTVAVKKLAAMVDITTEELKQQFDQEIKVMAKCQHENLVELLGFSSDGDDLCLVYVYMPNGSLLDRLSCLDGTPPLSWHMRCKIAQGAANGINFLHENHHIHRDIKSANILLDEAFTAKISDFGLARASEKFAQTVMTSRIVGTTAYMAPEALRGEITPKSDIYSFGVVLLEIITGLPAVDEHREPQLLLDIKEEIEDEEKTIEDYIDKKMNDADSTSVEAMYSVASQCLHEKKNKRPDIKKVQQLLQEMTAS
# Outline: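 With 1 nM IRAK-4, 0.5 μM biotinylated peptide and 10 μM ATP, compound incubated 30 min at 23 °C in 50 mM HEPES pH 7.2 with Mg2+/Mn2+. Stopped with EDTA plus europium-cryptate anti-phosphopeptide antibody and streptavidin-XL665, 60 min at 23 °C. Activity taken as the 665/620 nm TR-FRET ratio.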
Compound,IC50 [1],IC50 [2]
O=C(Nc1nc2ccc(-c3cnc(CO[C@H]4CCC[C@@H]4O)nc3)cc2s1)C1CC(N2CCCCC2)C1 (stereo partly drawn) [b-02-83],0.149 µM,0.00193 µM
C[C@@H]1CCCCN1C1CC(C(=O)Nc2nc3ccc(-c4cnc(CO[C@H]5CCC[C@@H]5O)nc4)cc3s2)C1 (stereo partly drawn) [b-02-84],0.101 µM,0.00104 µM
CC(C)[C@@H]1[C@H](O)CCCN1C1CC(C(=O)Nc2nc3ccc(-c4cnc(CO[C@H]5CCC[C@@H]5O)nc4)cc3s2)C1 (stereo partly drawn) [b-02-85],0.127 µM,0.00188 µM
O=C(Nc1nc2ccc(-c3cnc(CO[C@H]4CCC[C@@H]4O)nc3)cc2s1)C1CC(NCc2nccs2)C1 (stereo partly drawn) [b-02-86],0.132 µM,0.000803 µM
O=C(Nc1nc2ccc(-c3cnc(CO[C@H]4CCC[C@@H]4O)nc3)cc2s1)C1CC(NCc2ccsn2)C1 (stereo partly drawn) [b-02-87],0.182 µM,0.00095 µM
"CN(C1CC(C(=O)Nc2nc3ccc(-c4cnc(CO[C@H]5CCC[C@@H]5O)nc4)cc3s2)C1)C12CC(C1)C2 (stereo partly drawn) [b-03-01, 3-(Bicyclo[1,1,1]pentan-1-yl(methyl)amino)-N-(6-(2-((((1S,2S)-2-hydroxycyclopentyl)oxy)methyl)pyrimidin-5-yl)benzo[d]thiazol-2-yl)cyclobutane-1-carboxamide]",0.071 µM,0.0013 µM
O=C(Nc1nc2ccc(-c3cnc(CO[C@H]4CCC[C@@H]4O)nc3)cc2s1)C1CC(N(CCC(F)(F)F)C23CC(C2)C3)C1 (stereo partly drawn) [b-03-02],0.145 µM,0.011 µM
CN(C1CC1)C1CC(C(=O)Nc2nc3ccc(-c4cnc(CO[C@H]5CCC[C@@H]5O)nc4)cc3s2)C1 (stereo partly drawn) [b-03-03],0.126 µM,0.00143 µM
CN(C1CC(C(=O)Nc2nc3ccc(-c4cnc(CO[C@H]5CCC[C@@H]5O)nc4)cc3s2)C1)C12CC(C)(C1)C2 (stereo partly drawn) [b-03-04],0.117 µM,0.00167 µM
CN(C1CC(C(=O)Nc2nc3ccc(-c4cnc(CO[C@H]5CCC[C@@H]5O)nc4)cc3s2)C1)C1(C(F)F)CC1 (stereo partly drawn) [b-03-05],0.108 µM,0.00293 µM
CN(C1CC(C(=O)Nc2nc3ccc(-c4cnc(CO[C@H]5CCC[C@@H]5O)nc4)cc3s2)C1)C12CC(C#N)(C1)C2 (stereo partly drawn) [b-03-06],0.116 µM,0.0028 µM
CN(C1CC(C(=O)Nc2nc3ccc(-c4cnc(CO[C@H]5CCC[C@@H]5O)nc4)cc3s2)C1)[C@@H]1C[C@H]1C(F)(F)F (stereo partly drawn) [b-03-07],0.183 µM,0.00526 µM
CN(C1CC(C(=O)Nc2nc3ccc(-c4cnc(CO[C@H]5CCC[C@@H]5O)nc4)cc3s2)C1)C1CC(F)(F)C1 (stereo partly drawn) [b-03-08],0.127 µM,0.00268 µM
CN(c1cnn(C)c1)C1CC(C(=O)Nc2nc3ccc(-c4cnc(CO[C@H]5CCC[C@@H]5O)nc4)cc3s2)C1 (stereo partly drawn) [b-03-09],0.143 µM,0.00221 µM
"C[C@H]1CN(C(=O)OC(C)(C)C)CCN1[C@H]1C[C@@H](C(=O)Nc2nc3ccc(-c4cnc(CO[C@H]5CCC[C@@H]5O)nc4)cc3s2)C1 [b-04-01, tert-Butyl (S)-4-((1S,3R)-3-((6-(2-((((1S,2S)-2-hydroxycyclopentyl)oxy)methyl)pyrimidin-5-yl)benzo[d]thiazol-2-yl)carbamoyl)cyclobutyl)-3-methylpiperazine-1-carboxylate]",0.051 µM,0.00549 µM
"Cc1cc(C(=O)N2CCN([C@H]3C[C@@H](C(=O)Nc4nc5ccc(-c6cnc(CO[C@H]7CCC[C@@H]7O)nc6)cc5s4)C3)[C@@H](C)C2)ccn1 [b-04-02, (1R,3s)-N-(6-(2-((((1S,2S)-2-Hydroxycyclopentyl)oxy)methyl)pyrimidin-5-yl)benzo[d]thiazol-2-yl)-3-((S)-2-methyl-4-(2-methylisonicotinoyl)piperazin-1-yl)cyclobutane-1-carboxamide]",0.021 µM,0.0014 µM
C[C@H]1CN(C(=O)C23CC(C#N)(C2)C3)CCN1[C@H]1C[C@@H](C(=O)Nc2nc3ccc(-c4cnc(CO[C@H]5CCC[C@@H]5O)nc4)cc3s2)C1 [b-04-03],0.046 µM,0.00321 µM

Compound,IC50 [1],IC50 [2]
C[C@H]1CN(C(=O)CC2CCOCC2)CCN1[C@H]1C[C@@H](C(=O)Nc2nc3ccc(-c4cnc(CO[C@H]5CCC[C@@H]5O)nc4)cc3s2)C1 [b-04-04],0.049 µM,0.00269 µM
C[C@H]1CN(C(=O)C2CCCO2)CCN1[C@H]1C[C@@H](C(=O)Nc2nc3ccc(-c4cnc(CO[C@H]5CCC[C@@H]5O)nc4)cc3s2)C1 (stereo partly drawn) [b-04-05],0.054 µM,0.00285 µM
COCCOCC(=O)N1CCN([C@H]2C[C@@H](C(=O)Nc3nc4ccc(-c5cnc(CO[C@H]6CCC[C@@H]6O)nc5)cc4s3)C2)[C@@H](C)C1 [b-04-06],0.064 µM,0.00237 µM
C[C@H]1CN(C(=O)C2CCOC2)CCN1[C@H]1C[C@@H](C(=O)Nc2nc3ccc(-c4cnc(CO[C@H]5CCC[C@@H]5O)nc4)cc3s2)C1 (stereo partly drawn) [b-04-07],0.06 µM,0.0026 µM
CCOCC(=O)N1CCN([C@H]2C[C@@H](C(=O)Nc3nc4ccc(-c5cnc(CO[C@H]6CCC[C@@H]6O)nc5)cc4s3)C2)[C@@H](C)C1 [b-04-08],0.053 µM,0.00248 µM
C[C@H]1CN(C(=O)C2CCOCC2)CCN1[C@H]1C[C@@H](C(=O)Nc2nc3ccc(-c4cnc(CO[C@H]5CCC[C@@H]5O)nc4)cc3s2)C1 [b-04-09],0.055 µM,0.00258 µM
C[C@H]1CN(C(=O)C23CC(C2)C3)CCN1[C@H]1C[C@@H](C(=O)Nc2nc3ccc(-c4cnc(CO[C@H]5CCC[C@@H]5O)nc4)cc3s2)C1 [b-04-10],0.03 µM,0.00394 µM
C[C@H]1CN(C(=O)c2ccccn2)CCN1[C@H]1C[C@@H](C(=O)Nc2nc3ccc(-c4cnc(CO[C@H]5CCC[C@@H]5O)nc4)cc3s2)C1 [b-04-11],0.038 µM,0.00189 µM
C[C@H]1CN(C(=O)c2cccnc2)CCN1[C@H]1C[C@@H](C(=O)Nc2nc3ccc(-c4cnc(CO[C@H]5CCC[C@@H]5O)nc4)cc3s2)C1 [b-04-12],0.039 µM,0.00193 µM
C[C@H]1CN(C(=O)c2ccncc2)CCN1[C@H]1C[C@@H](C(=O)Nc2nc3ccc(-c4cnc(CO[C@H]5CCC[C@@H]5O)nc4)cc3s2)C1 [b-04-13],0.027 µM,0.0017 µM
C[C@H]1CN(C(=O)c2ccc(C(F)(F)F)cn2)CCN1[C@H]1C[C@@H](C(=O)Nc2nc3ccc(-c4cnc(CO[C@H]5CCC[C@@H]5O)nc4)cc3s2)C1 [b-04-14],0.025 µM,0.0015 µM
CC(C)[C@H]1CN(C(=O)c2ccccn2)CCN1C1CC(C(=O)Nc2nc3ccc(-c4cnc(CO[C@H]5CCC[C@@H]5O)nc4)cc3s2)C1 (stereo partly drawn) [b-04-15],0.028 µM,0.00161 µM
CC[C@H]1CN(C(=O)c2ccccn2)CCN1C1CC(C(=O)Nc2nc3ccc(-c4cnc(CO[C@H]5CCC[C@@H]5O)nc4)cc3s2)C1 (stereo partly drawn) [b-04-16],0.023 µM,0.00151 µM
CC(C)[C@H]1CN(C(=O)C2CCOC2)CCN1C1CC(C(=O)Nc2nc3ccc(-c4cnc(CO[C@H]5CCC[C@@H]5O)nc4)cc3s2)C1 (stereo partly drawn) [b-04-17],0.022 µM,0.00158 µM
CC[C@H]1CN(C(=O)C2CCOC2)CCN1C1CC(C(=O)Nc2nc3ccc(-c4cnc(CO[C@H]5CCC[C@@H]5O)nc4)cc3s2)C1 (stereo partly drawn) [b-04-18],0.03 µM,0.00111 µM
C[C@H]1CN(C(=O)c2cccc(C(F)(F)F)n2)CCN1[C@H]1C[C@@H](C(=O)Nc2nc3ccc(-c4cnc(CO[C@H]5CCC[C@@H]5O)nc4)cc3s2)C1 [b-04-19],0.039 µM,0.00138 µM
